Source: patent publication US10227312B2, “Glucosylceramide synthase inhibitors for the treatment of diseases” (BIOMARIN PHARMACEUTICAL INC., priority 2015, dated 2019)

Columns and labels:
[1] = target: glucosylceramide synthase (GCS) (Canis lupus familiaris, UniProt A0A8I3MXG6); assay: GCS Enzymatic Assay (MDCK lysates); type: biochemical, canine; conditions: MDCK cell lysate, C6-NBD-Ceramide, 37° C. for 1 hour, LC/MS; read-out: Assay 1 (Enzyme Assay; MDCK lysates) IC50
Description: Madin-Darby canine kidney (MDCK) cell lysate was prepared using M-PER Mammalian Protein Extraction Reagent (Thermal Scientific) in the presence of a protease inhibitor cocktail (Roche). Protein concentration was determined using BCA assay kit (Pierce). […] 0.1% DMSO was used as mock treatment or control. The reaction was terminated by adding 100 μL acetonitrile solution and subjected to LC/MS analysis.
The quantitative analysis of NBD-Ceramide and glucosylceramide was performed on a Shimadzu ultra-fast liquid chromatography (Shimadzu, Japan) coupled with API 4000 triple quadrupole mass spectrometer (Applied Biosystems, Concord, Ontario, Canada). Sample separation was conducted on a Waters Xbridge™ BEH130 C18, 100 mm×4.6 mm i.d, 3.5 μm (Milford, Mass., USA). The mobile phase consisted of water and acetonitrile supplemented with 0.1% formic acid (v/v). The flow rate was 1.0 mL/min. The initial mobile phase was 20% acetonitrile and was ramped in a linear fashion to 50% acetonitrile in 0.4 min. From 0.4 to 1.5 min, the gradient was ramped to 98% acetonitrile, and then was held at […] until 8.0 min. Acetonitrile was reset to 20% in 1.5 min, and maintained until 10.0 min. The total run time was 10.0 min. The MS/MS detection was performed in ESI positive mode. […] The cell lysate was diluted with equal volume of acetonitrile. Aliquots of 50 μL diluted samples were added to 1.5 mL tubes, and 100 μL of acetonitrile containing internal standard (100 ng/mL tolbutamide) were added for protein precipitation. The mixture were vortexed and then centrifuged at 13000 rpm for 10 min. 70 μL of supernatant were mixed with 140 μL of H2O and the final solution were injected for LC/MS/MS analysis and IC50's and/or percent inhibitions calculated.

K562 cells = assay: K562 Cell-Based Assay; conditions: Homo sapiens, NBD-Ceramide, LCMS, read-out: Assay 2 (Cellular Assay; K562 cells) IC50
Description: This assay was modified based on the study by Gupta et al. (J. Lipid Res. 2010, 51, 866). K562 cells were seeded into 12-well plates at 3×10^5 cells/well/mL in RPMI-1640 medium with 5% FBS and incubated at 37° C. for 24 h. One μL of a compound described herein at desired concentration (10 mM, 1 mM, 0.1 mM, 0.01 mM, 0.001 mM and 0.0001 mM in DMSO) or DMSO was added into the corresponding well and mixed. Cells were incubated at 37° C. for 4 h. Then 100 μL of RPMI-1640 medium containing 110 μM of NBD-Ceramide, 11% BSA, 5% FBS, and corresponding concentration of a compound described herein was added into each well and mixed. Cells were incubated for additional 0.5 h at 37° C., followed by washing the cells with ice-cold PBS (pH 7.4) twice with centrifugation and resuspended with 50 μL cold PBS+1% Triton X-100. The cell lysate was sonicated for 15 min before adding equal volume of methanol for LCMS analysis. A small aliquot of cell lysate was used to determine protein concentration by BCA assay kit. The HPLC equipment and methods used in Assay 1 were used in this assay as well and IC50's were calculated.

glucosylceramide synthase (GCS), sequence (A0A8I3MXG6 1-394): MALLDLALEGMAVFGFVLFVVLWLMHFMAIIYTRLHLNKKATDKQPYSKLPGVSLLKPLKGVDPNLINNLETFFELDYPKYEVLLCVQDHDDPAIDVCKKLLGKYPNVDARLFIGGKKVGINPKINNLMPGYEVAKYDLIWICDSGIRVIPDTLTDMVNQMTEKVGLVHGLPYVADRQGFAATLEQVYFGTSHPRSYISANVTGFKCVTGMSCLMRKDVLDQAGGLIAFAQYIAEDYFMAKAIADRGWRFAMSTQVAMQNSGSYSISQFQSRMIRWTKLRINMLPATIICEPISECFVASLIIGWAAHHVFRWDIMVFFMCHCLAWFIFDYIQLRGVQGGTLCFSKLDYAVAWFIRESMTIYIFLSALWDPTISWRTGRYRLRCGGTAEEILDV

IC50 [1] [nM] | IC50 (K562 cells) [nM] | SMILES
< 10 | ≤ 10 | O=C(N[C@H](CN1CCCC1)[C@H](O)c1ccc(OC2CC2)c(Cl)c1)C1=NOCc2cc(-c3ccc(F)cc3)ccc21 [Example 1, N-((1R,2R)-1-(3-chloro-4-cyclopropoxyphenyl)-1-hydroxy-3-(pyrrolidin-1-yl)propan-2-yl)-7-(4-fluorophenyl)-1H-benzo[d][1,2]oxazine-4-carboxamide]
< 10 | ≤ 10 | O=C(N[C@H](CN1CCCC1)[C@H](O)c1ccc(OC2CC2)c(F)c1)C1=NOCc2cc(-c3ccc(F)cc3)ccc21 [Example 2, N-((1R,2R)-1-(4-cyclopropoxy-3-fluorophenyl)-1-hydroxy-3-(pyrrolidin-1-yl)propan-2-yl)-7-(4-fluorophenyl)-1H-benzo[d][1,2]oxazine-4-carboxamide]
10 to 100 | ≤ 10 | O=C(N[C@H](CN1CCC1)[C@H](O)c1ccc(OC2CC2)c(Cl)c1)C1=NOCc2cc(-c3ccc(F)cc3)ccc21 [Example 5, N-((1R,2R)-3-(azetidin-1-yl)-1-(3-chloro-4-cyclopropoxyphenyl)-1-hydroxypropan-2-yl)-7-(4-fluorophenyl)-1H-benzo[d][1,2]oxazine-4-carboxamide]
< 10 | ≤ 10 | O=C(N[C@H](CN1CCCC1)[C@H](O)c1ccc(OC2CC2)c(F)c1)C1=NOCc2cc(-c3ccc(Cl)s3)ccc21 [Example 8, 7-(5-chlorothiophen-2-yl)-N-((1R,2R)-1-(4-cyclopropoxy-3-fluorophenyl)-1-hydroxy-3-(pyrrolidin-1-yl)propan-2-yl)-1H-benzo[d][1,2]oxazine-4-carboxamide]
< 10 | ≤ 10 | O=C(N[C@H](CN1CCC1)[C@H](O)c1ccc(OC2CC2)c(F)c1)C1=NOCc2cc(-c3ccc(Cl)s3)ccc21 [Example 9, N-((1R,2R)-3-(azetidin-1-yl)-1-(4-cyclopropoxy-3-fluorophenyl)-1-hydroxypropan-2-yl)-7-(5-chlorothiophen-2-yl)-1H-benzo[d][1,2]oxazine-4-carboxamide]
10 to 100 | – | O=C(N[C@H](CN1CCCC1)[C@H](O)c1ccc(OC2CC2)c(Cl)c1)C1=NOCc2c1sc1cc(Cl)ccc21 [Example 13, 7-chloro-N-((1R,2R)-1-(3-chloro-4-cyclopropoxyphenyl)-1-hydroxy-3-(pyrrolidin-1-yl)propan-2-yl)-1H-benzo[4,5]thieno[2,3-d][1,2]oxazine-4-carboxamide]
100 to 1000 | – | O=C(N[C@H](CN1CCC1)[C@H](O)c1ccc(OC2CC2)c(F)c1)C1=NOCc2c1sc1cc(Cl)ccc21 [Example 15, N-((1R,2R)-3-(azetidin-1-yl)-1-(4-cyclopropoxy-3-fluorophenyl)-1-hydroxypropan-2-yl)-7-chloro-1H-benzo[4,5]thieno[2,3-d][1,2]oxazine-4-carboxamide]
100 to 1000 | – | O=C(N[C@H](CN1CCC1)[C@H](O)c1ccc(OC2CC2)c(Cl)c1)C1=NOCc2c1sc1cc(Cl)ccc21 [Example 16, N-((1R,2R)-3-(azetidin-1-yl)-1-(3-chloro-4-cyclopropoxyphenyl)-1-hydroxypropan-2-yl)-7-chloro-1H-benzo[4,5]thieno[2,3-d][1,2]oxazine-4-carboxamide]
100 to 1000 | – | CC1(C)ON=C(C(=O)N[C@H](CN2CCCC2)[C@H](O)c2ccc(OC3CC3)c(Cl)c2)c2ccc(-c3ccc(F)cc3)cc21 [Example 23, N-((1R,2R)-1-(3-chloro-4-cyclopropoxyphenyl)-1-hydroxy-3-(pyrrolidin-1-yl)propan-2-yl)-7-(4-fluorophenyl)-1,1-dimethyl-1H-benzo[d][1,2]oxazine-4-carboxamide]
100 to 1000 | – | CC1(C)Cc2cc(-c3ccc(F)cc3)ccc2C(C(=O)N[C@H](CN2CCCC2)[C@H](O)c2ccc(OC3CC3)c(Cl)c2)=N1 [Example 41, N-((1R,2R)-1-(3-chloro-4-cyclopropoxyphenyl)-1-hydroxy-3-(pyrrolidin-1-yl)propan-2-yl)-6-(4-fluorophenyl)-3,3-dimethyl-3,4-dihydroisoquinoline-1-carboxamide]
100 to 1000 | – | O=C(N[C@H](CN1CCCC1)[C@H](O)c1ccc(OC2CC2)c(Cl)c1)C1OCCc2c1sc1cc(Cl)ccc21 (stereo partly drawn) [Example 43, 7-chloro-N-((1R,2R)-1-(3-chloro-4-cyclopropoxyphenyl)-1-hydroxy-3-(pyrrolidin-1-yl)propan-2-yl)-3,4-dihydro-1H-benzo[4,5]thieno[2,3-c]pyran-1-carboxamide]

More lines, now with the values behind:

SMILES | IC50 [1] [nM] | IC50 (K562 cells) [nM]
O=C(N[C@H](CN1CCCC1)[C@H](O)c1cc(F)c2c(c1)OCCO2)C1=NOCc2cc(-c3ccc(F)cc3)ccc21 [Example 3, N-((1R,2R)-1-(8-fluoro-2,3-dihydrobenzo[b][1,4]dioxin-6-yl)-1-hydroxy-3-(pyrrolidin-1-yl)propan-2-yl)-7-(4-fluorophenyl)-1H-benzo[d][1,2]oxazine-4-carboxamide] | < 10 | ≤ 10
O=C(N[C@H](CN1CCCC1)[C@H](O)c1ccc(OC2CC2)cc1)C1=NOCc2cc(-c3ccc(F)cc3)ccc21 [Example 4, N-((1R,2R)-1-(4-cyclopropoxyphenyl)-1-hydroxy-3-(pyrrolidin-1-yl)propan-2-yl)-7-(4-fluorophenyl)-1H-benzo[d][1,2]oxazine-4-carboxamide] | 10 to 100 | ≤ 10
O=C(N[C@H](CN1CCC1)[C@H](O)c1ccc(OC2CC2)cc1)C1=NOCc2cc(-c3ccc(F)cc3)ccc21 [Example 6, N-((1R,2R)-3-(azetidin-1-yl)-1-(4-cyclopropoxyphenyl)-1-hydroxypropan-2-yl)-7-(4-fluorophenyl)-1H-benzo[d][1,2]oxazine-4-carboxamide] | 10 to 100 | ≤ 10
O=C(N[C@H](CN1CCC1)[C@H](O)c1ccc(OC2CC2)c(F)c1)C1=NOCc2cc(-c3ccc(F)cc3)ccc21 [Example 7, N-((1R,2R)-3-(azetidin-1-yl)-1-(4-cyclopropoxy-3-fluorophenyl)-1-hydroxypropan-2-yl)-7-(4-fluorophenyl)-1H-benzo[d][1,2]oxazine-4-carboxamide] | < 10 | ≤ 10
O=C(N[C@H](CN1CCCC1)[C@H](O)c1ccc(OC2CC2)c(Cl)c1)C1=NOCc2cc(-c3ccc(Cl)s3)ccc21 [Example 10, N-((1R,2R)-1-(3-chloro-4-cyclopropoxyphenyl)-1-hydroxy-3-(pyrrolidin-1-yl)propan-2-yl)-7-(5-chlorothiophen-2-yl)-1H-benzo[d][1,2]oxazine-4-carboxamide] | 10 to 100 | ≤ 10
O=C(N[C@H](CN1CCC1)[C@H](O)c1ccc(OC2CC2)cc1)C1=NOCc2cc(-c3ccc(Cl)s3)ccc21 [Example 11, N-((1R,2R)-3-(azetidin-1-yl)-1-(4-cyclopropoxyphenyl)-1-hydroxypropan-2-yl)-7-(5-chlorothiophen-2-yl)-1H-benzo[d][1,2]oxazine-4-carboxamide] | 10 to 100 | ≤ 10
O=C(N[C@H](CN1CCCC1)[C@H](O)c1ccc(OC2CC2)c(F)c1)C1=NOCc2c1sc1cc(Cl)ccc21 [Example 12, 7-chloro-N-((1R,2R)-1-(4-cyclopropoxy-3-fluorophenyl)-1-hydroxy-3-(pyrrolidin-1-yl)propan-2-yl)-1H-benzo[4,5]thieno[2,3-d][1,2]oxazine-4-carboxamide] | 10 to 100 | 10 to 100
O=C(N[C@H](CN1CCC1)[C@H](O)c1ccc(OC2CC2)cc1)C1=NCCc2cc(-c3ccc(F)cc3)ccc21 [Example 40, N-((1R,2R)-3-(azetidin-1-yl)-1-(4-cyclopropoxyphenyl)-1-hydroxypropan-2-yl)-6-(4-fluorophenyl)-3,4-dihydroisoquinoline-1-carboxamide] | 10 to 100 | –
O=C(N[C@H](CN1CCCC1)[C@H](O)c1ccc(OC2CC2)c(Cl)c1)C1OCCc2cc(-c3ccc(F)cc3)ccc21 (stereo partly drawn) [Example 42, N-((1R,2R)-1-(3-chloro-4-cyclopropoxyphenyl)-1-hydroxy-3-(pyrrolidin-1-yl)propan-2-yl)-6-(4-fluorophenyl)isochroman-1-carboxamide] | 100 to 1000 | –
